Source: patent US20050234065A1, “Dipeptidyl peptidase-IV inhibitors” (Pfizer Inc, priority 2004, published 2005)

molecular target: T1, DPP-IV (Homo sapiens, UniProt P27487); assay: In vitro assay for dipeptidyl peptidase inhibition; assay type: biochemical; conditions: IC50 (concentration of test compound required for 50% inhibition), hydrochloride salts; Gly-Pro-4-methoxy B naphthylamide substrate; overnight at 37° C.
T1 construct: purchased Enzyme Systems Products SPE-01
Procedure: 150 μL of an enzyme-substrate solution was pipetted into microtiter wells of a polystyrene 96-well plate, and maintained at 4° C. The enzyme-substrate solution comprised 50 μM Gly-Pro-4-methoxy B naphthylamide HCl in 50 mM Tris assay buffer pH 7.3 containing 0.1M sodium chloride, 0.1% (v/v) Triton and 50 μU/mL DPP-IV (Enzyme Systems Products Cat#SPE-01, DPP-IV 5 mU/mL stock). 5 μL/well of compounds of Formula (I) were added, bringing the final compound of Formula (I) concentrations to 3 μM-10 nM per well.
Controls. Enzyme was omitted from four (4) wells, as a reagent blank. 5 μL of 3 mM Diprotin A was added to four wells as a positive quality control, providing a final Diprotin A concentration of 100 μM. To measure total enzyme activity (i.e. a negative control), without the influence of any compounds of Formula (I), 5 μL of distilled water was added to four wells.
The entire assay was incubated overnight (about 14-18 hours) at 37° C.

T1 sequence (P27487 whole entry, species assumed): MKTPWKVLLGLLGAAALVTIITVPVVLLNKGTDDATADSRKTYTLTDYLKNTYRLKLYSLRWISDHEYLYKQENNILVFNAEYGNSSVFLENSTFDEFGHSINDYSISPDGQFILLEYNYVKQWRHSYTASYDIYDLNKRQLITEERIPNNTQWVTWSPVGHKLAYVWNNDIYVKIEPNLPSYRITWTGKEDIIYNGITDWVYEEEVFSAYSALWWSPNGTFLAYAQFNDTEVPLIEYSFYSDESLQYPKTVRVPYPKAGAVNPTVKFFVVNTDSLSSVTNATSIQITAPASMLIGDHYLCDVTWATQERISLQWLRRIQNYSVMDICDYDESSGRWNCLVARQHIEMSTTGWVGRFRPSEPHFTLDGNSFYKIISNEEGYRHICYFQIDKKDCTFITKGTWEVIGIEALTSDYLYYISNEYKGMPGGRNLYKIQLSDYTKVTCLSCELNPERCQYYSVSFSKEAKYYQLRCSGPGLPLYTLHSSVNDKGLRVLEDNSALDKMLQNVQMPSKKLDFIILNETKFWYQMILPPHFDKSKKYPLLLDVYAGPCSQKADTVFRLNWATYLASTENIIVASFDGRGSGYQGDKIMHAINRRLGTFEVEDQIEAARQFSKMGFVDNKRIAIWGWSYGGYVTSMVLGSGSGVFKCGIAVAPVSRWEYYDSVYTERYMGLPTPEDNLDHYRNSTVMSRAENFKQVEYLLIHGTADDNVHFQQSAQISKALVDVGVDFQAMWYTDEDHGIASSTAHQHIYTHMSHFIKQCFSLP

SMILES	IC50 [nM]
CN(CC(=O)N[C@H]1CC[C@H]([C@H](N)C(=O)N2CCC(F)(F)C2)CC1)C(=O)Oc1ccccc1 [Example 33, ({trans-4-[(1S)-1-amino-2-(3,3-difluoro-pyrrolidin-1-yl)-2-oxo-ethyl]-cyclohexylcarbamoyl}-methyl)-methyl-carbamic acid phenyl ester]	≤ 100

same assay, conditions: hydrochloride salts; Gly-Pro-4-methoxy B naphthylamide substrate; overnight at 37° C.; read-out: IC50 (concentration of test compound required for 50% inhibition)

SMILES	IC50 [nM]
CN(CC(=O)N[C@H]1CC[C@H]([C@H](N)C(=O)N2CCC[C@H]2C#N)CC1)C(=O)OCc1ccccc1 [Example 37, ({trans-4-[(1S)-1-amino-2-((2S)-2-cyano-pyrrolidin-1-yl)-2-oxo-ethyl]-cyclohexylcarbamoyl}-methyl)-methyl-carbamic acid benzyl ester]	≤ 100
N#C[C@@H]1CCCN1C(=O)[C@@H](N)[C@H]1CC[C@H](N2Cc3ncccc3C2=O)CC1 [Example 44, 1-{(1S)-amino-[trans-4-(5-oxo-5,7-dihydro-pyrrolo[3,4-b]pyridin-6-yl)-cyclohexyl]-acetyl)-(2S)-pyrrolidine-2-carbonitrile]	≤ 100
N[C@H](C(=O)N1CCC(F)(F)C1)[C@H]1CC[C@H](N2Cc3ncccc3C2=O)CC1 [Example 45, 6-{trans-4-[(1S)-1-amino-2-(3,3-difluoro-pyrrolidin-1-yl)-2-oxo-ethyl]-cyclohexyl}-6,7-dihydro-pyrrolo[3,4-b]pyridin-5-one]	≤ 100
N[C@H](C(=O)N1CCCC1)[C@H]1CC[C@H](N2Cc3nccnc3C2=O)CC1 [Example 46, 6-[trans-4-((1S)-1-amino-2-oxo-2-pyrrolidin-1-yl-ethyl)-cyclohexyl]-6,7-dihydro-pyrrolo[3,4-b]pyrazin-5-one]	≤ 100
N#C[C@@H]1CCCN1C(=O)[C@@H](N)[C@H]1CC[C@H](NC(=O)c2cc3cccn3cn2)CC1 [Example 47, pyrrolo[1,2-c]pyrimidine-3-carboxylic acid {trans-4-[(1S)-1-Amino-2-((2S)-2-cyano-pyrrolidin-1-yl)-2-oxo-ethyl]-cyclohexyl}-amide]	≤ 100
Cc1nn(C)c(C(=O)N[C@H]2CC[C@H]([C@H](N)C(=O)N3CCCC3)CC2)c1N [Example 48, (S)-4-amino-2,5-dimethyl-2H-pyrazole-3-carboxylic acid [trans-4-(1-amino-2-oxo-2-pyrrolidin-1-yl-ethyl)-cyclohexyl]-amide]	≤ 100
Nc1nccnc1C(=O)N[C@H]1CC[C@H]([C@H](N)C(=O)N2CC[S+]([O-])C2)CC1 (stereo partly drawn) [Example 49, 3-amino-pyrazine-2-carboxylic acid {trans-4-[(1S)-1-amino-2-oxo-2-(1-oxo-1×4-thiazolidin-3-yl)-ethyl]-cyclohexyl}-amide]	100 to 500
N[C@H](C(=O)N1CCCC1)[C@H]1CC[C@H](N2Cc3ccccc3S2(=O)=O)CC1 [Example 50, (2S)-2-amino-2-[trans-4-(1,1-dioxo-1,3-dihydro-1λ^6-benzo[d]isothiazol-2-yl)-cyclohexyl]-1-pyrrolidin-1-yl-ethanone]	≤ 100
N[C@H](C(=O)N1CC[C@@H](F)C1)[C@H]1CC[C@H](NC(=O)c2cncc(O)n2)CC1 [Example 53, 6-Hydroxy-pyrazine-2-carboxylic acid {trans-4-[(1S)-1-Amino-2-((3R)-3-fluoro-pyrrolidin-1-yl)-2-oxo-ethyl]-cyclohexyl}-amide]	≤ 100
CC1(C)COc2cnc(C(=O)N[C@H]3CC[C@H]([C@H](N)C(=O)N4CCC[C@H]4C#N)CC3)cc21 [Example 55, N-(trans-4-{(1S)-1-amino-2-[(2S)-2-cyanopyrrolidin-1-yl]-2-oxoethyl}cyclohexyl)-3,3-dimethyl-2,3-dihydrofuro[2,3-c]pyridine-5-carboxamide]	≤ 100
N#C[C@@H]1CCCN1C(=O)[C@@H](N)[C@H]1CC[C@H](NC(=O)c2cn3cccc3cn2)CC1 [Example 56, N-(trans-4-{(S)-1-amino-2-[(2S)-2-cyanopyrrolidin-1-yl]-2-oxoethyl}cyclohexyl)pyrrolo[1,2-a]pyrazine-3-carboxamide]	≤ 100
N#C[C@@H]1CCCN1C(=O)[C@@H](N)[C@H]1CC[C@H](NC(=O)c2cc3ccoc3cn2)CC1 [Example 58, N-(trans-4-{(1S)-1-amino-2-[(2S)-2-cyanopyrrolidin-1-yl]-2-oxoethyl}cyclohexyl) furo[2,3-c]pyridine-5-carboxamide]	≤ 100
N#C[C@@H]1CCCN1C(=O)[C@@H](N)[C@H]1CC[C@H](NC(=O)c2cc3ccsc3cn2)CC1 [Example 60, N-(trans-4-{(1S)-1-amino-2-[(2S)-2-cyanopyrrolidin-1-yl]-2-oxoethyl}cyclohexyl)thieno[2,3-c]pyridine-5-carboxamide]	≤ 100
C#Cc1coc2cnc(C(=O)N[C@H]3CC[C@H]([C@H](N)C(=O)N4CCC[C@H]4C#N)CC3)cc12 [Example 62, N-(trans-4-{(S)-1-amino-2-[(2S)-2-cyanopyrrolidin-1-yl]-2-oxoethyl}cyclohexyl)-3-ethynylfuro[2,3-c]pyridine-5-carboxamide]	≤ 100

The next lines start with the values.

IC50 [nM]	SMILES
≤ 100	Nc1nccnc1C(=O)N[C@H]1CC[C@H]([C@H](N)C(=O)N2CCC(F)(F)C2)CC1 [Example 32, (S)-3-amino-pyrazine-2-carboxylic acid {trans-4-[1-amino-2-(3,3-difluoro-pyrrolidin-1-yl)-2-oxo-ethyl]-cyclohexyl}-amide]
100 to 500	CN(CC(=O)N[C@H]1CC[C@H]([C@H](N)C(=O)N2CCCC2)CC1)C(=O)OCc1ccccc1 [Example 34, (S)-{[trans-4-(1-amino-2-oxo-2-pyrrolidin-1-yl-ethyl)-cyclohexylcarbamoyl]-methyl}-methyl-carbamic acid benzyl ester]
≤ 100	N#C[C@@H]1CCCN1C(=O)[C@@H](N)[C@H]1CC[C@H](NC(=O)c2nccnc2N)CC1 [Example 36, 3-amino-pyrazine-2-carboxylic acid {trans-4-[(1S)-1-amino-2-((2S)-2-cyano-pyrrolidin-1-yl)-2-oxo-ethyl]-cyclohexyl}-amide]
≤ 100	Nc1ncccc1C(=O)N[C@H]1CC[C@H]([C@H](N)C(=O)N2CCCC2)CC1 [Example 38, (S)-2-amino-N-[trans-4-(1-amino-2-oxo-2-pyrrolidin-1-yl-ethyl)-cyclohexyl]-nicotinamide]
≤ 100	Nc1ncccc1C(=O)N[C@H]1CC[C@H]([C@H](N)C(=O)N2CCSC2)CC1 [Example 39, (S)-2-amino-N-[trans-4-(1-amino-2-oxo-2-thiazolidin-3-yl-ethyl)-cyclohexyl]-nicotinamide]
≤ 100	N[C@H](C(=O)N1CCCC1)[C@H]1CC[C@H](N2Cc3sccc3C2=O)CC1 [Example 41, 5-[trans-4-((1S)-1-amino-2-oxo-2-pyrrolidin-1-yl-ethyl)-cyclohexyl]-5,6-dihydro-thieno[2,3-c]pyrrol-4-one]
≤ 100	N[C@H](C(=O)N1CCCC1)[C@H]1CC[C@H](N2Cc3ncccc3C2=O)CC1 [Example 42, 6-[trans-4-((1S)-1-amino-2-oxo-2-pyrrolidin-1-yl-ethyl)-cyclohexyl]-6,7-dihydro-pyrrolo[3,4-b]pyridin-5-one]
≤ 100	N[C@H](C(=O)N1CCSC1)[C@H]1CC[C@H](N2Cc3ncccc3C2=O)CC1 [Example 43, 6-[trans-4-((1S)-1-amino-2-oxo-2-thiazolidin-3-yl-ethyl)-cyclohexyl]-6,7-dihydro-pyrrolo[3,4-b]pyridin-5-one]
≤ 100	N[C@H](C(=O)N1CCSC1)[C@H]1CC[C@H](N2Cc3ccccc3S2(=O)=O)CC1 [Example 51, (2S)-2-amino-2-[trans-4-(1,1-dioxo-1,3-dihydro-1λ^6-benzo[d]isothiazol-2-yl)-cyclohexyl]-1-thiazolidin-3-yl-ethanone]
≤ 100	N[C@H](C(=O)N1CC[C@@H](F)C1)[C@H]1CC[C@H](NC(=O)c2cccc(O)n2)CC1 [Example 52, 6-hydroxy-pyridine-2-carboxylic acid {trans-4-[(1S)-1-amino-2-((3R)-3-fluoro-pyrrolidin-1-yl)-2-oxo-ethyl]-cyclohexyl}-amide]
≤ 100	Cn1ccc2cc(C(=O)N[C@H]3CC[C@H]([C@H](N)C(=O)N4CCC[C@H]4C#N)CC3)ncc21 [Example 54, N-(trans-4-{(1S)-1-Amino-2-[(2S)-2-cyanopyrrolidin-1-yl]-2-oxoethyl}cyclohexyl)-1-methyl-1H-pyrrolo[2,3-c]pyridine-5-carboxamide]
≤ 100	N#C[C@@H]1CCCN1C(=O)[C@@H](N)[C@H]1CC[C@H](NC(=O)c2cc3sccc3cn2)CC1 [Example 57, N-(trans-4-{(1S)-1-amino-2-[(2S)-2-cyanopyrrolidin-1-yl]-2-oxoethyl}cyclohexyl)thieno[3,2-c]pyridine-6-carboxamide]
≤ 100	Cc1cc(C)n2cnc(C(=O)N[C@H]3CC[C@H]([C@H](N)C(=O)N4CCC[C@H]4C#N)CC3)cc12 [Example 59, N-(trans-4-{(1S)-1-amino-2-[(2S)-2-cyanopyrrolidin-1-yl]-2-oxoethyl}cyclohexyl)-5,7-dimethylpyrrolo[1,2-c]pyrimidine-3-carboxamide]
≤ 100	N#C[C@@H]1CCCN1C(=O)[C@@H](N)[C@H]1CC[C@H](NC(=O)c2cc3occc3cn2)CC1 [Example 61, N-(trans-4-{(1S)-1-amino-2-[(2S)-2-cyanopyrrolidin-1-yl]-2-oxoethyl}cyclohexyl)furo[3,2-c]pyridine-6-carboxamide]
